Values quoted from earlier work as cited in patent US11723908B2, “Quinazoline derivatives as antitumor agents” (SUZHOU ZANRONG PHARMA LIMITED, priority 2018, dated 2023).

How the values were obtained:
Pgp = settings: literature statement; cited from earlier work
[1] = literature values; cited from earlier work

Structure (SMILES)	Pgp substrate status (Pgp)	brain to blood ratio (Kp) [1]
Cc1cc(Nc2ncnc3ccc(NC4=NC(C)(C)CO4)cc23)ccc1Oc1ccn2ncnc2c1 [Tucatinib]	strong Pgp substrate	0.02-0.05
CN(C)C/C=C/C(=O)Nc1cc2c(Nc3ccc(F)c(Cl)c3)ncnc2cc1O[C@H]1CCOC1 [afatinib]	strong Pgp substrates	< 0.08
CS(=O)(=O)CCNCc1ccc(-c2ccc3ncnc(Nc4ccc(OCc5cccc(F)c5)c(Cl)c4)c3c2)o1 [lapatinib]	strong Pgp substrates	0.04
CCOc1cc2ncc(C#N)c(Nc3ccc(OCc4ccccn4)c(Cl)c3)c2cc1NC(=O)/C=C/CN(C)C [neratinib]	strong Pgp substrates	0.079
